Laboratory results from patent US10781262B2, “Combination therapy of T cell activating bispecific antigen binding molecules and PD-1 axis binding antagonists” (Hoffmann-La Roche Inc., priority 2014, dated 2020).
pIC50, pKd: −log10 of the molar value. Like-named read-outs stand apart in the source and are kept apart here.

Assays:
[1] = test system: primary CD34+ AML cells from relapsed/refractory patients; experiment: Cytotoxic activity on primary AML cells, CellTiter-Glo; format: cell-based, human; details: Fab-PE24 constructs, 3 days; for pIC50: Homo sapiens, 72 h
Excerpt: CD34^+ cells from peripheral blood of relapsed/refractory patients were obtained from AllCells, LLC, Alameda, Calif. […] (see FIG. 31).
(§1) Cycloheximide was used as positive control.

TF-1 = experiment: Cytotoxic activity, CellTiter-Glo Luminescent Cell Viability Assay; format: cell-based; details: Fab-PE24 constructs
Excerpt: as §1

Karpas-299 = experiment: as above; format: cell-based; details: Fab-PE24 constructs
Excerpt: as §1

MOLM-13 = experiment: as above; format: cell-based; details: Fab-PE24 constructs
Excerpt: as §1

CMK = experiment: as above; format: cell-based; details: Fab-PE24 constructs
Excerpt: as §1

[2] = test system: recombinant CHO K1 stabile expressing human TIM-3; experiment: as above; format: cell-based; details: CHO-K1, 72 h; sandwich format: mouse Fcγ antibodies + mouse Fcγ specific Fabs conjugated with PE 24, 3 days
RPMI-8226 cells = experiment: as above; details: for pIC50: Homo sapiens
Procedure: (§2) Treatment ranges from 10 μg/ml to 1 ng/ml in triplicate. All antibodies were used as full length mouse Fcγ versions. For conjugation of the conjugation of the Pseudomonas exotoxin 10 μg/ml of mouse Fcγ fragment specific Fabs conjugated with PE 24 were added and incubated for 3 days at 37° C. Cycloheximide as a known protein synthesis inhibitor in eukaryotes was used as positive control. Viability of treated cells were measured with Promega CellTiter-Glo Luminescent Cell Viability Assay.
(§3) The cytotoxic activity was calculated as follow: Rel. Inhibition [%]=(1−(Esampel−E negative control)/(E positive control−E negative control))*100
(§4) All antibodies were used as full length human IgG1 format including the human Fcgamma part. In this experiment conjugation of the Pseudomonas exotoxin was achieved via human Fcγ fragment specific Fabs conjugated with PE 24 (10 μg/ml) which were added and incubated for 5 days at 37° C.
(§5) The cytotoxic activity was analysed with Promega CellTiter-Glo Luminescent Cell Viability Assay as described above. 1:5 serial dilutions of Fab-fragments of disclosed anti-TIM3 antibodies directly conjugated to PE24 with the highest concentration of 50 μg/ml or appropriate media to untreated cells or non-binding anti-PSMA Fab-PE24 control to untargeted treated cells were incubated with 7.5×10^3 Pfeiffer cells or 2×10^3 RPMI-8226 cells (50 μl/well in […]) for 4 days at 37° C. Treatment ranges from 50 μg/ml to 8 ng/ml in triplicate. Cycloheximide was used as positive control.
(§6) The evaluation of cytotoxic activity of sortase coupled Fab-PE24 constructs of selected disclosed anti-TIM3 antibodies was analysed with Promega CellTiter-Glo Luminescent Cell Viability Assay as described above in Example 28.

Pfeiffer cells = experiment: as above; details: for pIC50: Homo sapiens, Pfeiffer
Procedure: as §2, §3, §4, §5, §6

[3] = test system: cynomolgus Folate Receptor 1 (FolR1-Fc); details: bivalent binding (avidity), ligand cyFolR1
Sequence of cynomolgus Folate Receptor 1 (FolR1-Fc) (as listed by the source): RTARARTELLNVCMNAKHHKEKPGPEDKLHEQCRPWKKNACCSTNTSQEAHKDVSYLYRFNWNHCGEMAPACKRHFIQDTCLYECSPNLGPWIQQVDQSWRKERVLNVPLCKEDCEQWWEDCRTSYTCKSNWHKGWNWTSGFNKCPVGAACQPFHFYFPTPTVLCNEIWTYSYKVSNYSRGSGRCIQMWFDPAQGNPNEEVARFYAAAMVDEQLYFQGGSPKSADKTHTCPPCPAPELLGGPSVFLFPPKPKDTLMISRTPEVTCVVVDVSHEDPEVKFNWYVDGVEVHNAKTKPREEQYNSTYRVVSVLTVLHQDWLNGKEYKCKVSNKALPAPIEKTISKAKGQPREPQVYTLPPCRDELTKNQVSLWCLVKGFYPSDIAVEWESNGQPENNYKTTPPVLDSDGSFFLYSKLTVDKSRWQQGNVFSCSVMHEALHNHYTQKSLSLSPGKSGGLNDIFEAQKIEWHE
Sequence of cynomolgus Folate Receptor 1 (FolR1-Fc) (as listed by the source partner): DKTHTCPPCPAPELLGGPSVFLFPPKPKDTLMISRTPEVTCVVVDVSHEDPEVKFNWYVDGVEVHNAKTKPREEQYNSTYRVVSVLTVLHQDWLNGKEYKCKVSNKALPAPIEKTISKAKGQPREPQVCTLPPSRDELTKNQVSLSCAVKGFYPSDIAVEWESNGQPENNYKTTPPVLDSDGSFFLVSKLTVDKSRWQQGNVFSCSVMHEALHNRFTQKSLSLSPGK
Procedure: (§7) Binding of FolR1 binders as IgG or in the T-cell bispecific format to different recombinant folate receptors (human FolR1, 2 and 3, murine FolR1 and cynomolgus FolR1; all as Fc fusions) was assessed by surface plasmon resonance (SPR). All SPR experiments were performed on a Biacore T200 at 25° C. with HBS-EP as running buffer (0.01 M HEPES pH 7.4, 0.15 M NaCl, 3 mM EDTA, 0.005% Surfactant P20, Biacore, Freiburg/Germany).
The avidity of the interaction between the anti-FolR1 IgGs or T cell bispecifics and the recombinant folate receptors was determined as described below (Table 9). Recombinant biotinylated monomeric Fc fusions of human, cynomolgus and murine Folate Receptor 1 (FolR1-Fc) were directly coupled on a SA chip using the standard coupling instruction (Biacore, Freiburg/Germany). The immobilization level was about 300-400 RU. The anti-FolR1 IgGs or T cell bispecifics were passed at a concentration range from 2.1 to 500 nM with a flow of 30 μL/minutes through the flow cells over 180 seconds. The dissociation was monitored for 600 seconds. […] The binding curves resulting from the bivalent binding of the IgGs or T cell bispecifics were approximated to a 1:1 Langmuir binding and fitted with that model (which is not correct, but gives an idea of the avidity). The apparent avidity constants for the interactions were derived from the rate constants of the fitting using the Bia Evaluation software (GE Healthcare).

[4] = target: human Folate Receptor 1 Fc fusion (Homo sapiens, UniProt P15328); details: monovalent binding (affinity), analyte huFolR1
Sequence of human Folate Receptor 1 Fc fusion (P15328 with tags, fused parts or gaps): as the sequence (as listed by the source) above, with T2I, R4W, K37R, P146A, Y171H counted along it
Sequence of human Folate Receptor 1 Fc fusion (P01857 104-330 isoform P01857-1 Y232C/T249S/L251A/Y290V/H318R/Y319F partner): as the sequence (as listed by the source partner) above
Procedure: as §7
(§8) For affinity measurement, direct coupling of around 6000-7000 resonance units (RU) of the anti-human Fab specific antibody (Fab capture kit, GE Healthcare) was performed on a CM5 chip at pH 5.0 using the standard amine coupling kit (GE Healthcare). Anti-FolR1 IgGs or T cell bispecifics were captured at 20 nM with a flow rate of 10 μl/min for 20 or 40 sec, the reference flow cell was left without capture. Dilution series (6.17 to 500 nM or 12.35 to 3000 nM) of human or cyno Folate Receptor 1 Fc fusion were passed on all flow cells at 30 μl/min for 120 or 240 sec to record the association phase. The dissociation phase was monitored for 240 s and triggered by switching from the sample solution to HBS-EP. The chip surface was regenerated after every cycle using a double injection of 60 sec 10 mM Glycine-HCl pH 2.1 or pH 1.5. Bulk refractive index differences were corrected for by subtracting the response obtained on the reference flow cell 1. The affinity constants for the interactions were derived from the rate constants by fitting to a 1:1 Langmuir binding using the Bia Evaluation software (GE Healthcare).

[5] = target: cyno Folate Receptor 1 Fc fusion; details: monovalent binding (affinity), analyte cyFolR1
Sequence of cyno Folate Receptor 1 Fc fusion (as listed by the source): as the sequence (as listed by the source) above
Sequence of cyno Folate Receptor 1 Fc fusion (P01857 104-330 isoform P01857-1 Y232C/T249S/L251A/Y290V/H318R/Y319F partner): as the sequence (as listed by the source partner) above
Procedure: as §7, §8

[6] = target: T1, human Folate Receptor 1 (FolR1-Fc) (Homo sapiens, UniProt P15328); experiment: SPR avidity to Folate Receptor 1 (bivalent binding); details: bivalent binding (avidity), ligand huFolR1
T1 construct: the extracellular domain of the antigen linked to the hinge region of Fc-knob; made in house; host or cells: HEK293 EBNA
T1 sequence (P15328 with tags, fused parts or gaps): as the sequence (as listed by the source) above, with T2I, R4W, K37R, P146A, Y171H counted along it
T1 sequence (P01857 104-330 isoform P01857-1 Y232C/T249S/L251A/Y290V/H318R/Y319F partner): as the sequence (as listed by the source partner) above
Excerpt: The immobilization level was about 300-400 RU. […] The dissociation was monitored for 600 seconds.

human FolR2 = human FolR2 (Homo sapiens, UniProt P14207); details: IgG injected for 60 seconds at 500 nM
Sequence of human FolR2 (P14207 with tags, fused parts or gaps): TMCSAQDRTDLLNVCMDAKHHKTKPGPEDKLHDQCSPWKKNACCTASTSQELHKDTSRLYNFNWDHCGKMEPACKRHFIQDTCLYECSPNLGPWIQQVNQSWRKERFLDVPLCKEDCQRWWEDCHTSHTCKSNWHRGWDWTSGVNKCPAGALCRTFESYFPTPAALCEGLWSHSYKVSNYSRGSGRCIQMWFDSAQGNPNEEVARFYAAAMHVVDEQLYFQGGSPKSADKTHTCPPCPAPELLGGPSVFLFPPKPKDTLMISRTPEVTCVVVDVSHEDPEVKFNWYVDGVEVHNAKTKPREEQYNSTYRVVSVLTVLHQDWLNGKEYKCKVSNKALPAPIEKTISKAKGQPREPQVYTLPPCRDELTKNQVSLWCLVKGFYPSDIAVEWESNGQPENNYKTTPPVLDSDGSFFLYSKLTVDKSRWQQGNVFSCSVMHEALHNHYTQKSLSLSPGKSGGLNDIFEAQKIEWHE
Sequence of human FolR2 (P01857 104-330 isoform P01857-1 Y232C/T249S/L251A/Y290V/H318R/Y319F partner): as the sequence (as listed by the source partner) above
Procedure: as §7
(§9) First the anti-FolR1 IgGs were analyzed by single injections (Table 1) to characterize their crossreactivity (to human, murine and cyno FolR1) and specificity (to human FolR1, human FolR2, human FolR3). Recombinant biotinylated monomeric Fc fusions of human, cynomolgus and murine Folate Receptor 1 (FolR1-Fc) or human Folate Receptor 2 and 3 (FolR2-Fc, FolR3-Fc) were directly coupled on a SA chip using the standard coupling instruction (Biacore, Freiburg/Germany). The immobilization level was about 300-400 RU. The IgGs were injected for 60 seconds at a concentration of 500 nM.

murine FolR1 = murine FolR1 (Mus musculus, UniProt P35846); details: IgG injected for 60 seconds at 500 nM
Sequence of murine FolR1 (P35846 with tags, fused parts or gaps): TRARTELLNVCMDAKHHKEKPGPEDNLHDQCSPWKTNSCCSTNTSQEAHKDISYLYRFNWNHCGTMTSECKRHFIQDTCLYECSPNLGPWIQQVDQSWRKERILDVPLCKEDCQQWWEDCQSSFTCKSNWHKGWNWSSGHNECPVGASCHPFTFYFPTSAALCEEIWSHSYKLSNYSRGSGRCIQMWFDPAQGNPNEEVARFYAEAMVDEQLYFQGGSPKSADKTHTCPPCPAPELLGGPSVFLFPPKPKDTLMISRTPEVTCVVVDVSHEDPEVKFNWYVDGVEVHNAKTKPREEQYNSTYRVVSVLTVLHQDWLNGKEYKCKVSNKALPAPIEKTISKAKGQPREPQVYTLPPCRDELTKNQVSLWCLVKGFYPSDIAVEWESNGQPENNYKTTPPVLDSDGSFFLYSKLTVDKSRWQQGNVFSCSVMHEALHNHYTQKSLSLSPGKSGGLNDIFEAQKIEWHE
Sequence of murine FolR1 (as listed by the source partner): as the sequence (as listed by the source partner) above
Procedure: as §7, §9

human FolR3 = human FolR3 (Homo sapiens, UniProt P41439); details: IgG injected for 60 seconds at 500 nM
Sequence of human FolR3 (P41439 with tags, fused parts or gaps): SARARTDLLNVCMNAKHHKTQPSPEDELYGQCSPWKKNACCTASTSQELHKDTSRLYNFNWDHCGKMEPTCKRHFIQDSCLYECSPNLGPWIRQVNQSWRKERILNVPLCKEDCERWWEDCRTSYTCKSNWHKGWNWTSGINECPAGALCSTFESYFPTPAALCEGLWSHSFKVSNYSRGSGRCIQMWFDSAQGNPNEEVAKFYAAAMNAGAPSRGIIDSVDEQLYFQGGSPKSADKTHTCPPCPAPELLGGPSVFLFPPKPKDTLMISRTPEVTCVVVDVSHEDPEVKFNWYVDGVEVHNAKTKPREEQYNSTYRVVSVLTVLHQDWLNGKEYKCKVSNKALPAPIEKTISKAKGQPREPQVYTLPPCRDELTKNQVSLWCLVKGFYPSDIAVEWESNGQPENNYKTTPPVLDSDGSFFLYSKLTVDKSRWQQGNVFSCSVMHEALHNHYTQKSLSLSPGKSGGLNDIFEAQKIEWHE
Sequence of human FolR3 (P01857 104-330 isoform P01857-1 Y232C/T249S/L251A/Y290V/H318R/Y319F partner): as the sequence (as listed by the source partner) above
Procedure: as §7, §9

cynomolgus FolR1 = details: IgG injected for 60 seconds at 500 nM
Sequence of cynomolgus FolR1 (as listed by the source): as the sequence (as listed by the source) above
Procedure: as §7, §9

human FolR1 = human FolR1 (Homo sapiens, UniProt P15328); details: IgG injected for 60 seconds at 500 nM
Sequence of human FolR1 (P15328 with tags, fused parts or gaps): as the sequence (as listed by the source) above, with T2I, R4W, K37R, P146A, Y171H counted along it
Sequence of human FolR1 (P01857 104-330 isoform P01857-1 Y232C/T249S/L251A/Y290V/H318R/Y319F partner): as the sequence (as listed by the source partner) above
Procedure: as §7, §9

[7] = human IgG1 format + human Fcγ specific Fabs conjugated with PE 24, 5 days
[8] = sortase coupled Fab-PE24 constructs
[9] = Fab-PE24 construct vs. total IgG-Amatoxin conjugate

C[C@@H]1C[C@@H]([C@H](O)CC2CC(=O)NC(=O)C2)C(=O)[C@@H](C)C1 [Cycloheximide]
Max. killing ([1]; D1, AML CD34+ PB0136 cells): 100 [%] | Max. killing ([1]; D2, AML CD34+ PB0142 cells): 100 [%] | Max. killing ([1]; D3, AML CD34+ PB0135 cells): 100 [%] | Max. killing ([1]; D4, AML CD34+ PB0193 cells): 100 [%] | pIC50 ([1]; D1, AML CD34+ PB0136 cells): 6.67 | pIC50 ([1]; D2, AML CD34+ PB0142 cells): 6.58 | pIC50 ([1]; D3, AML CD34+ PB0135 cells): 6.92 | pIC50 ([1]; D4, AML CD34+ PB0193 cells): 6.68 | Max. killing (TF-1): 100 [%] | pIC50 (TF-1; Homo sapiens, TF-1): 6.68 | Max. killing (Karpas-299): 100 [%] | pIC50 (Karpas-299; Homo sapiens, KARPAS-299): 6.95 | Max. killing (MOLM-13): 100 [%] | pIC50 (MOLM-13; Homo sapiens, MOLM-13): 6.81 | Max. killing (CMK): 100 [%] | pIC50 (CMK; Homo sapiens, CMK): 6.83 | pIC50 [2]: 6.87 | Max. killing (RPMI-8226 cells; Fab-PE24 constructs, 4 days): 100 [%] | pIC50 (RPMI-8226 cells; RPMI-8226): 6.82 | pIC50 (RPMI-8226 cells; RPMI-8226, 96 h): 6.55 | Max. killing (RPMI-8226 cells; [7]): 100 [%] | Max. killing (RPMI-8226 cells; [8]): 100 [%] | Max. killing (Pfeiffer cells; [9]): 100 [%] | pIC50 (Pfeiffer cells; 72 h, sandwich format: mouse Fcγ antibodies + mouse Fcγ specific Fabs conjugated with PE 24, 3 days): 6.74 | pIC50 (Pfeiffer cells; 120 h, read-out: Rel. IC50, human IgG1 format + human Fcγ specific Fabs conjugated with PE 24, 5 days): 6.57 | pIC50 (Pfeiffer cells; [9]): 6.79 | pIC50 (Pfeiffer cells; [8]): 6.57 | Max. killing (Pfeiffer cells; [7]): 100 [%] | Max. killing (Pfeiffer cells; [8]): 100 [%]

Farletuzumab [reference compound]
ka [3]: 1.33e+06 M⁻¹ s⁻¹ | kd [3]: 0.000868 s⁻¹ | pKd ([3]; read-out: Apparent KD, approximated 1:1 Langmuir fit): 9.19 | ka [4]: 417000 M⁻¹ s⁻¹ | kd [4]: 0.023 s⁻¹ | pKd [5]: 7.17 | ka [5]: 553000 M⁻¹ s⁻¹ | kd [5]: 0.0373 s⁻¹ | ka [6]: 1.23e+06 M⁻¹ s⁻¹ | kd [6]: 0.0009 s⁻¹ | Binding to huFolR2 (human FolR2): − | Binding to muFolR1 (murine FolR1): − | Binding to huFolR3 (human FolR3): − | Binding to cyFolR1 (cynomolgus FolR1): + | Binding to huFolR1 (human FolR1): +
